Columns and labels:
[1] = system: Echinochloa crus-galli (ECHCG); test: Example A glasshouse herbicide test, post-emergence, ECHCG; type: in vivo; conditions: Echinochloa crus-galli, post-emergence, 312 h, Rate 250 g/ha, sprayed after 8 days cultivation, evaluated after 13 days, read-out: Post-Emergence Activity ECHCG (100=total damage to plant; 0=no damage to plant)
Method in brief: (§1)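 Read-out: percent visual plant damage 13 days post-treatment (100 = total). Application at 1 day (pre-emergence) or 8 days (post-emergence) after sowing, in acetone/water (50:50) with 0.5% Tween 20; glasshouse at 24/16° C., 14 hours light, 65% humidity.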

Lolium perenne (LOLPE) [2] = test: Example A glasshouse herbicide test, post-emergence, LOLPE; type: in vivo; conditions: Lolium perenne, post-emergence, 312 h, Rate 250 g/ha, sprayed after 8 days cultivation, evaluated after 13 days, read-out: Post-Emergence Activity LOLPE (100=total damage to plant; 0=no damage to plant)
Method in brief: as §1

[3] = system: Winter Wheat variety 'Hereward'; test: Example B crop damage test, post-emergence, unsafened wheat; type: in vivo; conditions: Rate 250 g/ha; post-emergence spray after 8 days cultivation; no safener; evaluated after 13 days
Method in brief: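 Winter wheat 'Hereward' was sprayed post-emergence 8 days after sowing, using formulated active ingredient in acetone/water (50:50) with 0.5% Tween 20. Plants grew in a glasshouse at 24/16 °C day/night, 14 h light and 65% humidity. Damage was scored 13 days later (0 = none, 100 = total).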

Avena fatua (AVEFA) [4] = test: Example A glasshouse herbicide test, post-emergence, AVEFA; type: in vivo; conditions: Avena fatua, post-emergence, 312 h, Rate 250 g/ha, sprayed after 8 days cultivation, evaluated after 13 days, read-out: Post-Emergence Activity AVEFA (100=total damage to plant; 0=no damage to plant)
Method in brief: as §1

[5] = system: Alopecurus myosuroides (ALOMY); test: Example A glasshouse herbicide test, post-emergence, ALOMY; type: in vivo; conditions: Alopecurus myosuroides, post-emergence, 312 h, Rate 250 g/ha, sprayed after 8 days cultivation, evaluated after 13 days, read-out: Post-Emergence Activity ALOMY (100=total damage to plant; 0=no damage to plant)
Method in brief: as §1

[6] = system: Alopecurus myosuroides (ALOMY); test: Example A glasshouse herbicide test, pre-emergence, ALOMY; type: in vivo; conditions: Alopecurus myosuroides, pre-emergence, 312 h, Rate 250 g/ha, sprayed after cultivation for one day, evaluated after 13 days, read-out: Pre-Emergence Activity ALOMY (100=total damage to plant; 0=no damage to plant)
Method in brief: as §1

[7] = system: Winter Wheat variety 'Hereward'; test: Example B crop damage test, post-emergence, wheat seed treated with safener cloquintocet mexyl; type: in vivo; conditions: Rate 250 g/ha; post-emergence spray 8 days after sowing; seed treated with cloquintocet mexyl 0.5 g/kg dry seed; evaluated after 13 days
Method in brief: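 Wheat seed pre-treated with cloquintocet mexyl at 0.5 g/kg seed, sown 8 days before post-emergence spraying of compound in acetone/water (50:50) with 0.5% Tween 20. Glasshouse at 24/16° C, 14 h light, 65% humidity. Damage scored visually after 13 days, 0 (none) to 100 (total).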

[8] = system: Echinochloa crus-galli (ECHCG); test: Example A glasshouse herbicide test, pre-emergence, ECHCG; type: in vivo; conditions: Echinochloa crus-galli, pre-emergence, 312 h, Rate 250 g/ha, sprayed after cultivation for one day, evaluated after 13 days, read-out: Pre-Emergence Activity ECHCG (100=total damage to plant; 0=no damage to plant)
Method in brief: as §1

Avena fatua (AVEFA) [9] = test: Example A glasshouse herbicide test, pre-emergence, AVEFA; type: in vivo; conditions: Avena fatua, pre-emergence, 312 h, Rate 250 g/ha, sprayed after cultivation for one day, evaluated after 13 days, read-out: Pre-Emergence Activity AVEFA (100=total damage to plant; 0=no damage to plant)
Method in brief: as §1

Lolium perenne (LOLPE) [10] = test: Example A glasshouse herbicide test, pre-emergence, LOLPE; type: in vivo; conditions: Lolium perenne, pre-emergence, 312 h, Rate 250 g/ha, sprayed after cultivation for one day, evaluated after 13 days, read-out: Pre-Emergence Activity LOLPE (100=total damage to plant; 0=no damage to plant)
Method in brief: as §1

| SMILES | pest or weed control at 250 g/ha [1] | pest or weed control at 250 g/ha (Lolium perenne (LOLPE) [2]) | Winter Wheat (Hereward) damage (100=total damage to plant; 0=no damage to plant) [3] | pest or weed control at 250 g/ha (Avena fatua (AVEFA) [4]) | pest or weed control at 250 g/ha [5] | pest or weed control at 250 g/ha [6] | Winter Wheat (Hereward) + cloquintocet mexyl damage (100=total damage to plant; 0=no damage to plant) [7] | pest or weed control at 250 g/ha [8] | melting point | pest or weed control at 250 g/ha (Avena fatua (AVEFA) [9]) | pest or weed control at 250 g/ha (Lolium perenne (LOLPE) [10]) |
| --- | --- | --- | --- | --- | --- | --- | --- | --- | --- | --- | --- |
| Cc1cc(C)c(C2C(=O)CC(Cc3ccccc3F)C2=O)c(C)c1 (stereo not drawn) [Compound A14] | 80% | 90% | 30 | 30% | 80% | 70% | 20 | 90% | 197.8 to 210.2 °C | 40% | 100% |
| Cc1cc(C)c(C2C(=O)CC(Cc3ccccc3C)C2=O)c(C)c1 (stereo not drawn) [Compound A15] | 40% | 90% | 30 | 50% | 80% | 70% | 20 | 60% | 210 to 215.5 °C | 70% | 100% |
| Cc1cc(C)c(C2C(=O)CC(Cc3ccccc3)C2=O)c(C)c1 (stereo not drawn) [Compound A17] | 60% | 80% | 10 | 40% | 80% | 50% | 10 | 70% | 160 to 165 °C | 30% | 90% |
| Cc1cccc(CC2CC(=O)C(c3c(C)cc(C)cc3C)C2=O)c1 (stereo not drawn) [Compound A18] | 50% | 90% | 20 | 50% | 80% | 80% | 10 | 100% | 173 to 179 °C | 50% | 100% |
| Cc1cc(C)c(C2C(=O)CC(Cc3ccc(C#N)cc3)C2=O)c(C)c1 (stereo not drawn) [Compound A19] | 90% | 90% | 60 | 60% | 90% | 80% | 10 | 100% | 249 to 251 °C | 40% | 90% |
| Cc1cc(C)c(C2C(=O)CC(Cc3cc(F)cc(F)c3)C2=O)c(C)c1 (stereo not drawn) [Compound A20] | 50% | 50% | 10 | 30% | 20% | 30% | 0 | 80% | 193 to 193.2 °C | 20% | 100% |
| Cc1cc(C)cc(CC2CC(=O)C(c3c(C)cc(C)cc3C)C2=O)c1 (stereo not drawn) [Compound A21] | 60% | 30% | 20 | 20% | 40% | 60% | 20 | 90% | 181 to 184 °C | 20% | 100% |
| Cc1cc(C)c(C2C(=O)CC(Cc3ccc(CS(=O)(=O)c4ccccc4)cc3)C2=O)c(C)c1 (stereo not drawn) [Compound A22] | 20% | 20% | – | 10% | 0% | 0% | – | 30% | 189 to 191.7 °C | 0% | 20% |
| Cc1cc(C)c(C2C(=O)CC(Cc3ccc(S(C)(=O)=O)cc3)C2=O)c(C)c1 (stereo not drawn) [Compound A23] | 90% | 50% | 50 | 90% | 90% | 90% | 50 | 90% | 235.3 to 238.6 °C | 80% | 100% |
| COc1ccc(CC2CC(=O)C(c3c(C)cc(C)cc3C)C2=O)cc1 (stereo not drawn) [Compound A24] | 30% | 80% | 40 | 90% | 80% | 90% | 10 | 80% | 197.3 to 197.6 °C | 80% | 100% |

From patent publication US8791303B2, “Herbicides” (Syngenta Limited, priority 2009, dated 2014)
